From patent US20210052529A1, “PHARMACEUTICAL COMPOSITIONS COMPRISING DICARBOXYLIC ACIDS AND THEIR THERAPEUTIC APPLICATIONS” (Cura Therapeutics, LLC, priority 2018, published 2021)
Values joined by “and” are separate entries in the source; they are usually repeats but may differ in a detail not shown here. Equal values may be shown once. Read-outs that look alike come from different tables or passages of the source.

How the values were obtained:
[1] = format: in vitro ADME, human; conditions: for Mean Height / % Remaining: human, 1 μM; for % Remaining: plasma
Description: Compound B1 was spiked directly into an individual lot of fresh human plasma, with sodium heparin as the anticoagulant, such that the final assay concentration of the compound was 1.00 μM. After incubation at room temperature for 0, 0.5, 1, 2, and 4 hours, samples were removed and aliquoted for analysis. Valacyclovir was used as a positive control. The plasma samples containing a test compound were processed by protein precipitation.
A primary 0.500 mM stock solution of compound B1 was prepared in either acetonitrile or acetonitrile:water (1:1, v/v). A 0.200 mM working stock was made from the primary stock in acetonitrile:water (1:1, v/v), which was used in the human plasma stability study. The primary and working stock solutions were stored at −20° C. when not in use. When it was used in the assay, the working stock was kept at room temperature for as short a time as possible.
The human plasma stability study was initiated by adding 5.00 μL of compound B1 stock solution to 0.995 mL of human plasma (sodium heparin) in a 1.7-mL snap tube. Time zero points were generated by immediately removing duplicate 50.0 μL aliquots of plasma after initiating each incubation and quenching in 150 μL of methanol. The plasma incubation tubes were capped and remained at room temperature between time points.
After 0.5, 1, 2, and 4 hours of incubation, duplicate 50.0 μL aliquots of plasma were removed and placed into the extraction tubes containing 150 μL of methanol. Each time point was immediately extracted by vortex mixing, centrifuged and the supernate removed to HPLC vial for analysis. After extraction of all samples, the extracts were analyzed by LC/MS/MS.
LC/MS/MS analysis of the incubation solutions was conducted by initial separation of the test compound peak using chromatography prior to detection by the mass spectrometer. The LC/MS system was comprised of a HPLC coupled with a TQS-Micro or Quattro Premier. The mobile phase was nebulized using heated nitrogen in a Z-spray source/interface set to electrospray in either positive ionization mode or negative ionization mode. The ionized compounds were detected using MS/MS. The data was acquired using MassLynx.

[2] = Pharmacokinetic study in rats; format: in vivo
Description: A pharmacokinetic study on compound B1 was carried out in rats.

[3] = Compound concentration in the CSF of rats; format: in vivo
Description: Compound B1 in the CSF of the rats was also analyzed. The results are shown in Table 4 below wherein BQL stands for below the quantifiable limit of 2.0 ng/mL.

Compound: O=C(O)c1ccc(NC(=O)[C@@H]2CCC[C@H](C(=O)Nc3ccc(C(=O)O)cc3)C2)cc1 [B1, 4,4′-(((1R,3S)-cyclohexane-1,3-dicarbonyl)bis(azanediyl))dibenzoic acid]
- Metabolism in fresh human plasma [1]: not significantly metabolized
- Mean Height ([1]; 0 h): 9,610
- Mean Height ([1]; 0.5 h): 9,430
- Mean Height ([1]; 1 h): 9,330
- Mean Height ([1]; 2 h): 9,610
- Mean Height ([1]; 4 h): 9,000
- % Remaining ([1]; 0 h): 100%
- % Remaining ([1]; 0.5 h): 98.1%
- % Remaining ([1]; 1 h): 97.1%
- % Remaining ([1]; 2 h): 100%
- % Remaining ([1]; 4 h): 93.7%
- AUCINF/Dose ([2]; IV): 2950
- CL or CL/F ([2]; IV): 4.8 mL/min/kg
- HL ([2]; IV): 1.9 h
- AUCINF/Dose ([2]; PO): 43
- HL ([2]; PO): 14 h
- AUC(0-inf) ([2]; rat, in vivo, 1 mg/kg, IV): 2950 ng·h/mL
- AUC(0-t) ([2]; rat, in vivo, 1 mg/kg, IV): 2950 ng·h/mL
- Cmax ([2]; rat, in vivo, 1 mg/kg, IV): 3980 ng/mL
- AUC(0-inf) ([2]; rat, in vivo, 10 mg/kg, PO): 431 ng·h/mL
- AUC(0-t) ([2]; rat, in vivo, 10 mg/kg, PO): 267 ng·h/mL
- Cmax ([2]; rat, in vivo, 10 mg/kg, PO): 29 ng/mL
- Tmax ([2]; rat, in vivo, 10 mg/kg, PO): 2 h
- bioavailability ([2]; rat, in vivo, 10 mg/kg, PO): 1.25%
- CL/F ([2]; rat, in vivo, 10 mg/kg, PO, read-out: CL or CL/F): 387 mL/min/kg
- CSF Concentration ([3]; IV, 0.00 h, individual animals): BQL (below the quantifiable limit of 2.0 ng/mL)
- CSF Concentration ([3]; IV, 0.5 h, individual animals): 26 ng/mL and 17 ng/mL and 36 ng/mL
- CSF Concentration ([3]; IV, 1.0 h, individual animals): 51 ng/mL and 391 ng/mL and 17 ng/mL
- CSF Concentration ([3]; IV, 2.0 h, individual animals): 33 ng/mL and 27 ng/mL
- CSF Concentration ([3]; IV, 4.0 h, individual animals): 10 ng/mL and 21 ng/mL and 4.5 ng/mL
- CSF Concentration ([3]; IV, 8.0 h, individual animals): 1.8 ng/mL
- CSF Concentration ([3]; IV, 12 h, individual animals): BQL (below the quantifiable limit of 2.0 ng/mL)
- CSF Concentration ([3]; PO, 0.00 h, individual animals): BQL (below the quantifiable limit of 2.0 ng/mL)
- CSF Concentration ([3]; PO, 0.5 h, individual animals): BQL (below the quantifiable limit of 2.0 ng/mL)
- CSF Concentration ([3]; PO, 1.0 h, individual animals): BQL (below the quantifiable limit of 2.0 ng/mL)
- CSF Concentration ([3]; PO, 2.0 h, individual animals): BQL (below the quantifiable limit of 2.0 ng/mL)
- CSF Concentration ([3]; PO, 4.0 h, individual animals): BQL (below the quantifiable limit of 2.0 ng/mL)
- CSF Concentration ([3]; PO, 8.0 h, individual animals): BQL (below the quantifiable limit of 2.0 ng/mL)
- CSF Concentration ([3]; PO, 12 h, individual animals): BQL (below the quantifiable limit of 2.0 ng/mL)
- concentration at 0.5 h ([3]; rat, CSF, iv, 0.5 h, mean): 27 ng/mL
- concentration at 1 h ([3]; rat, CSF, iv, 1.0 h, mean): 153 ng/mL
- concentration at 2 h ([3]; rat, CSF, iv, 2.0 h, individual animals, read-out: CSF Concentration): 17 ng/mL
- concentration at 2 h ([3]; rat, CSF, iv, 2.0 h, mean, read-out: CSF Concentration, Mean): 26 ng/mL
- concentration at 4 h ([3]; rat, CSF, iv, 4.0 h, mean): 12 ng/mL
- concentration at 8 h ([3]; rat, CSF, iv, 8.0 h, individual animals, read-out: CSF Concentration): 1.2 ng/mL
- concentration at 8 h ([3]; rat, CSF, iv, 8.0 h, mean, read-out: CSF Concentration, Mean): 1.5 ng/mL
- concentration at 2 h ([3]; rat, CSF, po, 10 mg/kg, PO, 2.0 h, individual animals, read-out: CSF Concentration): 4.6 ng/mL
- concentration at 2 h ([3]; rat, CSF, po, 10 mg/kg, PO, 2.0 h, mean (N=1), read-out: CSF Concentration, Mean): 4.6 ng/mL

Compound: CC(C)[C@H](N)C(=O)OCCOCn1cnc2c(=O)[nH]c(N)nc21 [Valacyclovir, reference compound]
- Mean Height ([1]; 0 h): 21,400
- Mean Height ([1]; 0.5 h): 20,700
- Mean Height ([1]; 1 h): 20,500
- Mean Height ([1]; 2 h): 19,800
- Mean Height ([1]; 4 h): 17,700
- % Remaining ([1]; 0 h): 100%
- % Remaining ([1]; 0.5 h): 96.7%
- % Remaining ([1]; 1 h): 95.8%
- % Remaining ([1]; 2 h): 92.5%
- % Remaining ([1]; 4 h): 82.7%
